From PubChem BioAssay (NCI)
“And” between values parts separate entries of the source, which are not always exact repeats. Identical values can stand only once.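 How tested: cells in 96-well plates exposed to compound for 48 hours at five concentrations. Here, GI50 denotes the concentration required for 50% inhibition of growth. TGI is the concentration that stops growth completely.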

What was measured:
Test in all cases: NCI tumour cell line growth inhibition, 48 h
NCI-H23 lung = test system: NCI-H23 lung
RPMI-8226 leukemia = test system: RPMI-8226 leukemia
EKVX NSCLC = test system: EKVX NSCLC
RXF 393 renal = test system: RXF 393 renal
OVCAR-3 ovarian = test system: OVCAR-3 ovarian
COLO 205 colon = test system: COLO 205 colon
T-47D breast = test system: T-47D breast
SK-MEL-5 melanoma = test system: SK-MEL-5 melanoma
HCT-15 colon = test system: HCT-15 colon
ACHN renal = test system: ACHN renal

| Compound | GI50 (NCI-H23 lung) | TGI (NCI-H23 lung) | GI50 (RPMI-8226 leukemia) [µM] | TGI (RPMI-8226 leukemia) [µM] | GI50 (EKVX NSCLC) | TGI (EKVX NSCLC) | GI50 (RXF 393 renal) | TGI (RXF 393 renal) | GI50 (OVCAR-3 ovarian) | TGI (OVCAR-3 ovarian) | GI50 (COLO 205 colon) | TGI (COLO 205 colon) | GI50 (T-47D breast) | TGI (T-47D breast) | GI50 (SK-MEL-5 melanoma) | TGI (SK-MEL-5 melanoma) | GI50 (HCT-15 colon) | TGI (HCT-15 colon) [µM] | GI50 (ACHN renal) | TGI (ACHN renal) |
| --- | --- | --- | --- | --- | --- | --- | --- | --- | --- | --- | --- | --- | --- | --- | --- | --- | --- | --- | --- | --- |
| N=C(N)c1ccc(N2CCCN(c3ccc(C(=N)N)cc3)CC2)cc1 | 74.5 µM | > 100 µM | > 100 | > 100 | 42.4 µM | > 100 µM | 98.2 µM | > 100 µM | 72.4 µM | > 100 µM | 31.8 µM | > 100 µM | 22.6 µM | 81 µM | 27.9 µM | > 100 µM | 65.3 µM | > 100 | > 100 µM | > 100 µM |
| CCCCCCCCCCCCCCCCCC(=O)OCC(COC1OC(COP(=O)(O)O)C(O)C(O)C1O)OC(=O)CCCCCCCCCCCCCCCCC (stereo not given) | – | 15 µM | – | 23.1 | – | 16.4 µM | – | 16.8 µM | – | 16 µM | – | 18.5 µM | – | 28.9 µM | – | 16.6 µM | – | 14.4 | – | 12.7 µM |
| Cc1ccc(NC(=O)/C=C/c2ccccc2)c(C(N)=O)c1 | 4.46 µM | > 100 µM | 2.89 | > 100 | 4.78 µM | > 100 µM | 2.67 µM | 8.16 µM | 2.28 µM | 6.68 µM | 1.68 µM | 5.93 µM | 5.11 µM | > 74.4 µM | 1.94 µM | > 41.5 µM | 2.43 µM | > 100 | 11 µM | > 96.6 µM |
| Cc1ccc(C(=O)Nc2cccc(C(F)(F)F)c2)cc1Nc1nc(-c2cccnc2)nc2c1cnn2C | 1.81 µM and 1.3 µM | 12.8 µM and 9.54 µM | 1.63 | 6.04 | 3.22 µM and 2.59 µM | 21.3 µM and > 10 µM | 1.47 µM and 1.45 µM | 4.24 µM and 3.66 µM | 3.86 µM and 2.53 µM | 17.4 µM and 7.27 µM | 1.22 µM and 0.575 µM | 5.79 µM and 3.65 µM | 3.44 µM and 1.86 µM | 16.3 µM and 8.72 µM | 1.74 µM and 1.24 µM | 4.06 µM and 2.96 µM | 2.65 µM and 1.63 µM | 4.94 | 2.13 µM and 1.08 µM | 11.1 µM and 7.4 µM |
| CC(=O)NC1=C(OS(=O)(=O)c2ccc(C)cc2)CN(C)C1=O | – | 15.3 µM | – | 5.77 | – | 14.2 µM | – | 13.3 µM | – | 8.14 µM | – | 25.3 µM | – | 9.35 µM | – | 18.4 µM | – | 13.2 | – | 12.3 µM |
| O=C1c2ccccc2-c2c1c1ccc([N+](=O)[O-])cc1c(=O)n2CCCBr | 1.1 µM | 5.76 µM | 36 | > 100 | > 100 µM | > 100 µM | > 100 µM | > 100 µM | > 100 µM | > 100 µM | > 100 µM | > 100 µM | > 100 µM | > 100 µM | – | – | > 100 µM | > 100 | > 100 µM | > 100 µM |
| Cc1ccc(C2=NOC3=c4ccccc4=CSC3=C2c2ccc([N+](=O)[O-])cc2)cc1 | 17.8 µM | 53.7 µM | 44.4 | > 100 | 24.4 µM | 93.6 µM | 18.7 µM | 64.6 µM | 10 µM | 41.9 µM | 35.8 µM | > 100 µM | 5.22 µM | 47.1 µM | 11.4 µM | 37.6 µM | 33.2 µM | > 100 | 13.8 µM | 61.4 µM |
| CNC(=O)OCc1c(COC(=O)NC)c(C)n(-c2ccc(Br)cc2)c1C | – | 35.4 µM | – | 31.6 | – | > 100 µM | – | 19.8 µM | – | 30.4 µM | – | 27.5 µM | – | 54.9 µM | – | 28.1 µM | – | 29.1 | – | 12.7 µM |
| C=CC(=O)N(C)[C@H]1C[C@H]2OC(C)(C1OC)n1c3ccccc3c3c4c(c5c6ccccc6n2c5c31)C(=O)NC4 (stereo not given in full) | 0.158 µM | 2.08 µM | 0.103 | 1.5 | 0.085 µM | > 50 µM | 0.0221 µM | 0.157 µM | 0.16 µM | 0.851 µM | 0.0831 µM | 0.253 µM | 0.0774 µM | – | 0.262 µM | 0.972 µM | 0.099 µM | 0.644 | 0.139 µM | > 50 µM |
| COc1cccc(C=Nc2cc(C)ccn2)c1O.COc1cccc(C=Nc2cc(C)ccn2)c1O.[Cu] | 19 µM | 49.4 µM | 17.6 | > 100 | 25.4 µM | 71.5 µM | 11.9 µM | 34.8 µM | 14 µM | 40.9 µM | 18.9 µM | 42.8 µM | 12 µM | 33.1 µM | 7.39 µM | 20.9 µM | 11.9 µM | 36 | 22.3 µM | 43.8 µM |
| COc1ccc(-c2cc(-c3ccccc3)nc(SCCCC(=O)NO)n2)cc1 | 1.51 µM | 4.75 µM | 0.454 | > 22.9 | 1.66 µM | 8.07 µM | 0.338 µM | 1.4 µM | 1.2 µM | 5.17 µM | 2.08 µM | 6.94 µM | 0.804 µM | 15.1 µM | 1.26 µM | 2.75 µM | 0.387 µM | 3.34 | 0.356 µM | 1.46 µM |
| CC(C)(C)c1n[nH]c(=S)n(/N=C/c2ccc(F)c(Oc3ccccc3)c2)c1=O | 37.7 µM | > 100 µM | 32.5 | > 100 | 41.6 µM | > 100 µM | 38.2 µM | > 100 µM | 28.3 µM | 95.7 µM | 38.6 µM | > 100 µM | 55.7 µM | > 100 µM | 19.9 µM | 42.4 µM | 37.7 µM | > 100 | 33.8 µM | > 100 µM |
| C=CC(=O)N1CCN(c2ccc3cccc(NC(=O)c4cnc(C)cn4)c3n2)CC1 | 4.49 µM | 19.5 µM | 1.5 | 6.52 | 12.4 µM | > 100 µM | 1.45 µM | 9.46 µM | 2.91 µM | > 100 µM | 6.26 µM | 30 µM | 3.48 µM | > 100 µM | 4.42 µM | 16.9 µM | 2.08 µM | 24.6 | 0.656 µM | > 100 µM |
| COC(=O)Cn1c2c(c3c(O)cccc31)C(=O)c1ccccc1-2 | > 100 µM | > 100 µM | > 100 | > 100 | > 100 µM | > 100 µM | > 100 µM | > 100 µM | > 100 µM | > 100 µM | > 100 µM | > 100 µM | > 100 µM | > 100 µM | > 100 µM | > 100 µM | > 100 µM | > 100 | > 100 µM | > 100 µM |
| O=C(N/N=C/c1ccc2c(c1)CCC2)c1ccccc1O | – | 82.2 µM | – | > 100 | – | 92.2 µM | – | 62 µM | – | 41.5 µM | – | > 100 µM | – | > 100 µM | – | > 100 µM | – | 69.6 | – | 34.8 µM |
| N#C/C(=C\c1c(-c2ccccc2)[nH]c2ccccc12)S(=O)(=O)c1ccccc1 | 4.26 µM | > 58.5 µM | 0.557 | 6.88 | 5.49 µM | > 64.8 µM | 3.43 µM | > 27.4 µM | 1.14 µM | 4.41 µM | 1.38 µM | 17 µM | 3.82 µM | 33.8 µM | 1.82 µM | 11.5 µM | 1.07 µM | 34.6 | 6.65 µM | 75 µM |
| O=C(NN1C(=O)CSC12CCCCC2)c1[nH]c2ccc(F)cc2c1-c1ccccc1 | 18.4 µM | 50.9 µM | 15.7 | 37 | 83 µM | > 100 µM | 14.6 µM | 29.7 µM | 18.8 µM | 32.9 µM | 36.8 µM | > 100 µM | 35.6 µM | > 100 µM | 41.4 µM | > 100 µM | 32.3 µM | > 100 | 20 µM | 42.9 µM |
| Nc1ncnc2[nH]ncc12 | 1.59 µM | 38.1 µM | 0.378 | 14.3 | 2.6 µM | > 79.9 µM | 0.86 µM | > 28.6 µM | 0.863 µM | 4.38 µM | 1.55 µM | > 67.3 µM | 0.265 µM | 4.52 µM | 4.18 µM | 24.5 µM | 0.281 µM | > 100 | 0.535 µM | > 100 µM |
| COc1ccc(-c2n[nH]nc2-c2cc(OC)c3c(c2OC)OCO3)cc1 | 1.25 µM | 26.5 µM | 0.751 | 37.7 | 2.8 µM | 39.7 µM | 1.1 µM | 5.37 µM | 0.378 µM | 2.71 µM | 1.19 µM | 5.57 µM | 1.73 µM | > 100 µM | 0.684 µM | 17.7 µM | 0.546 µM | > 100 | 9.16 µM | > 100 µM |
| C=C1CC[C@@H]2[C@](C)(COC(C)=O)[C@@H](O)CC[C@@]2(C)[C@@H]1COc1ccc2ccc(=O)oc2c1 | > 100 µM | > 100 µM | 26.3 | > 100 | > 100 µM | > 100 µM | 14.7 µM | 58.9 µM | > 100 µM | > 100 µM | – | – | > 100 µM | > 100 µM | > 100 µM | > 100 µM | > 100 µM | > 100 | > 100 µM | > 100 µM |
